Values of other authors as cited in US20120244588A1, “METHOD OF PRODUCING 3-HYDROXYPROPIONIC ACID USING MALONIC SEMIALDEHYDE REDUCING PATHWAY” (SAMSUNG ELECTRONICS CO., LTD., priority 2011, published 2012).

Key:
[1] = 25° C.

O=C(O)CCO [3-HP, 3-hydroxypropionic acid]
pKa [1]: 4.51
solubility in water: very soluble

O=C([O-])CCO.O=C([O-])CCO.[Ca+2] [calcium salt of 3-HP]
solubility in water relative to citric acid or malic acid: 100 times
